The values that follow come from patent publication US20150119329A1, “MODULATION OF ANGIOTENSIN II RECEPTORS FOR THE PREVENTION AND TREATMENT OF MALARIA CEREBRAL” (NEW YORK UNIVERSITY, priority 2012, published 2015).

Peptide text beside a SMILES is read from it.

The test system of experiment [1] is P. berghei ANKA. Description: Brain histopathology (hemorrhages, blood brain barrier integrity) in cerebral malaria mouse model. Type of experiment: in vivo. As to conditions: Losartan 10 mg/Kg/d, CGP-42112A 500 ng/min/kg. As for the experimental part:
Cerebral Malaria Experimental Mouse Model. Female C57BL/6J mice were obtained from Taconic Farms Inc. All mice were maintained under barrier conditions. Water and normal laboratory diet were available ad libitum. The infection was performed by inoculating i.p. 10^6 infected erythrocytes with P. berghei ANKA. All procedures involving animals conformed to the Guide for the Care and Use of Laboratory Animals published by US National Institutes of Health (NIH Publication No. 85-23, revised 1985) and were performed with the approval of the Animal Care and Use Committee at the University of New York. Alzet osmotic minipumps (Model 1002; ALZA Scientific Products, Mountain View, Calif., USA) were implanted into C57BL/6J mice at 4 months of age. Pumps were filled either with saline vehicle or solution of CGP-42112A (Sigma Chemical Co.) that delivered (subcutaneously) at 500 ng/min/kg for the duration of the study. Pumps were placed into the subcutaneous space of subcutaneous bupivacaine anesthetized mice through a small incision on the animal back slightly posterior of the shoulder blades that was closed with Reflex 7 mm wound closure system (ALZA Scientific Products, Mountain View, Calif., USA).

Experiment [2] has as its system human brain microvascular endothelial cells (HBMECs). Description: iRBC-induced disruption of interendothelial junctions and detachment of HBMEC monolayer (nuclei count, PrestoBlue viability). Conditions: P. falciparum iRBCs over HBMECs, 18 hours; compound 10^−5 M. The experiment is classed as cell-based.
Experimental: Cell viability assay. To assess the viability of the adherent HBMECs PrestoBlue Cell Viability Reagent (Invitrogen) was utilized. […] After 18 hours, the plates were washed twice with PBS, and PrestoBlue Cell Viability Reagent diluted 1:10 with medium, was added. Samples were then incubated for 3 hours at 37° C. PrestoBlue is reduced from blue resazurin to red resorufin in the presence of viable cells. The absorbance (595 nm) was read with a Victor X3 plate reader.
Experiment [3] relates to P. berghei ANKA. The experiment can be described thus: Cerebral malaria experimental mouse model (development of cerebral malaria, mortality). The experiment is classed as in vivo. As to conditions: C57BL/6J mice infected with P. berghei ANKA; Losartan 10 mg/Kg/d in drinking water; compared with vehicle treatment.

For the molecule `CC[C@H](C)[C@H](NC(=O)[C@@H]1CCCN1C(=O)[C@H](Cc1c[nH]cn1)NC(=O)[C@H](CCCCNC(=O)[C@H](CCCNC(=N)N)NC(=O)OCc1ccccc1)NC(=O)[C@H](Cc1ccc(O)cc1)NC(=O)c1cccnc1)C(=O)O` [CGP-42112A, (25,35)-2-[[(25)-1-[(25)-2-[[(25)-6-[[(25)-5-(diaminomethylideneamino)-2-(phenylmethoxy-carbonylamino)pentanoyl]amino]-2-[[(25)-3-(4-hydroxyphenyl)-2-(pyridine-3-carbonylamino)propanoyl]amino]hexanoyl]amino]-3-(1H-imidazol-5-yl)propanoyl]pyrrolidine-2-carbonyl]amino]-3-methylpentanoic acid] (HELM PEPTIDE1{[O=C(c1cccnc1)[*:2]].Y.K.H.P.I}|PEPTIDE2{[O=C(OCc1ccccc1)[*:2]].R}$PEPTIDE1,PEPTIDE2,3:R3-2:R2$$$V2.0), the “quantification of hemorrhages in brain histological slices” value in experiment [1] (brains of infected mice (FIG. 4)) is recorded as “protective effect”. Also, the “structure of the brain vessels and integrity of the blood brain barrier (BBB)” value in experiment [1] (brains of infected mice, Hematoxillin/Eosin, versus untreated groups) is “better maintained”. Further, the “damage to HBMECs caused by rupture and release of iRBCs, compared to control” value in experiment [2] came to 20%.
In the case of `CCCCc1nc(Cl)c(CO)n1Cc1ccc(-c2ccccc2-c2nnn[nH]2)cc1` [Losartan, (2-butyl-4-chloro-1-{[2′-(1H-tetrazol-5-yl)biphenyl-4-yl]methyl]-1H-imidazol-5-yl)methanol], the reduction of mortality in experiment [3] was 4-5 times.
